The record followed here is ChEMBL document CHEMBL3797102, “Drug trapping in hERG K+ channels: (not) a matter of drug size?” (Medchemcomm, 2016).

What all share (assay type): cell-based
Series [1] addresses T1, hERG (KCNH2), wild type (Homo sapiens, UniProt Q12809). In words: Inhibition of wild type human ERG channel expressed in Xenopus laevis oocytes assessed as first current amplitude after resting period of 300 secs followed by single test pulse at -100 mV holding potential by two-electrode voltage clamp method. Further details: scale not given: the % may be the effect or the level left; call rule not given here. Particulars: read-out: Activity.

For series [2], the target named is T2, Voltage-gated inwardly rectifying potassium channel KCNH2 (Homo sapiens, UniProt Q12809). Kind of series: Inhibition of wild type human ERG channel expressed in Xenopus laevis oocytes assessed as use dependent steady state block of induced K+ current at 150 uM preincubated for 330 secs followed by pulse train at 1 Hz at holding potential -100 mV by two-electrode voltage clamp method. In general terms: Two-electrode voltage clamp holds a large cell at a set potential and records current.
T2 sequence (Q12809 whole entry): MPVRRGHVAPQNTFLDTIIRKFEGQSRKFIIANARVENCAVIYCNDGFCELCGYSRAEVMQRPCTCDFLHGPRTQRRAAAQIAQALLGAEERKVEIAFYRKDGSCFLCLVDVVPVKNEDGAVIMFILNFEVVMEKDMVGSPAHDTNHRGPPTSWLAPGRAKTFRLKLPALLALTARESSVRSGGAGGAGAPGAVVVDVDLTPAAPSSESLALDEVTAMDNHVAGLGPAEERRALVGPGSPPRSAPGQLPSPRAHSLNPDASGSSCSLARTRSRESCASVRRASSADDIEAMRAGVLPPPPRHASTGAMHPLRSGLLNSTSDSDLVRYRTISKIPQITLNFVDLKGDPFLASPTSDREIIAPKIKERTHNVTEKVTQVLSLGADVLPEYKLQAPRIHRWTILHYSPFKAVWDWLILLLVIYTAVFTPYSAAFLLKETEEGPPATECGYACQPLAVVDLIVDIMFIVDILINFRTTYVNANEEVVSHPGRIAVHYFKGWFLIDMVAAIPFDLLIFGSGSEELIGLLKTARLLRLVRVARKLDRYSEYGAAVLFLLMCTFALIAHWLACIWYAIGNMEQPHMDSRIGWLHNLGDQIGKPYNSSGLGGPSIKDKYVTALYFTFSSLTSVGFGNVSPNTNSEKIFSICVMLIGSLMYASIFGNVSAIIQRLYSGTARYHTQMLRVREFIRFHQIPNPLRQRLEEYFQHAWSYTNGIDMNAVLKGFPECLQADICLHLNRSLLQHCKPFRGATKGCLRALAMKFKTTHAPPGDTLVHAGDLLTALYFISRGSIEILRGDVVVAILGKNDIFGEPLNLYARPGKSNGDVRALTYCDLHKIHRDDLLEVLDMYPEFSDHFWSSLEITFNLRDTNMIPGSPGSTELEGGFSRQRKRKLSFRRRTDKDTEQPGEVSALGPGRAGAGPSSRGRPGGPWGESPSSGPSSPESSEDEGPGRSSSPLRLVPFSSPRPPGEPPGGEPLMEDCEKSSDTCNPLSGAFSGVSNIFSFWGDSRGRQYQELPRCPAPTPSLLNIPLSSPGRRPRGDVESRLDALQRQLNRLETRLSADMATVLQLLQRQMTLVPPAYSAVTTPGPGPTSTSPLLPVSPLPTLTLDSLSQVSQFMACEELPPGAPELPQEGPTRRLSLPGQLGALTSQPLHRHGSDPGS

Series [3] concerns the target T2, Voltage-gated inwardly rectifying potassium channel KCNH2. Kind of series: Inhibition of wild type human ERG channel expressed in Xenopus laevis oocytes assessed as time taken for use dependent steady state block of K+ current at 150 uM preincubated for 330 secs followed by pulse train at 1 Hz at holding potential -100 mV by two-electrode voltage clamp method.
Series [4] concerns the target T1, hERG (KCNH2), wild type. In words: Inhibition of wild type human ERG channel expressed in Xenopus laevis oocytes assessed as use dependent steady state block of +20 mV-induced K+ current at 150 uM preincubated for 330 secs followed by pulse train at 1 Hz by two-electrode voltage clamp method.
For series [5], the target named is T2, Voltage-gated inwardly rectifying potassium channel KCNH2. Kind of series: Inhibition of wild type human ERG channel expressed in Xenopus laevis oocytes assessed as recovery from channel block after resting period of 300 secs followed by single test pulse at -100 mV holding potential subsequently washed out at 0.3 Hz by two-electrode voltage clamp method. The arrangement: scale not given: the % may be the effect or the level left. As to conditions: 5 min.

Series [6] has as its target hERG (KCNH2) Y652A mutant (Homo sapiens, UniProt Q12809, Y652A). In words: Inhibition of human ERG channel Y652A mutant expressed in Xenopus laevis oocytes assessed as use dependent suppression of K+ current at 150 uM at 1 Hz equilibrated for 5 mins by two-electrode voltage clamp method.
Series [7] deals with hERG (KCNH2) F656A mutant (Homo sapiens, UniProt Q12809, F656A). Kind of series: Inhibition of human ERG channel F656A mutant expressed in Xenopus laevis oocytes assessed as use dependent suppression of tail current at 150 uM at -140 mV by two-electrode voltage clamp method.
Chain of hERG (KCNH2) F656A mutant (Q12809 whole entry F656A): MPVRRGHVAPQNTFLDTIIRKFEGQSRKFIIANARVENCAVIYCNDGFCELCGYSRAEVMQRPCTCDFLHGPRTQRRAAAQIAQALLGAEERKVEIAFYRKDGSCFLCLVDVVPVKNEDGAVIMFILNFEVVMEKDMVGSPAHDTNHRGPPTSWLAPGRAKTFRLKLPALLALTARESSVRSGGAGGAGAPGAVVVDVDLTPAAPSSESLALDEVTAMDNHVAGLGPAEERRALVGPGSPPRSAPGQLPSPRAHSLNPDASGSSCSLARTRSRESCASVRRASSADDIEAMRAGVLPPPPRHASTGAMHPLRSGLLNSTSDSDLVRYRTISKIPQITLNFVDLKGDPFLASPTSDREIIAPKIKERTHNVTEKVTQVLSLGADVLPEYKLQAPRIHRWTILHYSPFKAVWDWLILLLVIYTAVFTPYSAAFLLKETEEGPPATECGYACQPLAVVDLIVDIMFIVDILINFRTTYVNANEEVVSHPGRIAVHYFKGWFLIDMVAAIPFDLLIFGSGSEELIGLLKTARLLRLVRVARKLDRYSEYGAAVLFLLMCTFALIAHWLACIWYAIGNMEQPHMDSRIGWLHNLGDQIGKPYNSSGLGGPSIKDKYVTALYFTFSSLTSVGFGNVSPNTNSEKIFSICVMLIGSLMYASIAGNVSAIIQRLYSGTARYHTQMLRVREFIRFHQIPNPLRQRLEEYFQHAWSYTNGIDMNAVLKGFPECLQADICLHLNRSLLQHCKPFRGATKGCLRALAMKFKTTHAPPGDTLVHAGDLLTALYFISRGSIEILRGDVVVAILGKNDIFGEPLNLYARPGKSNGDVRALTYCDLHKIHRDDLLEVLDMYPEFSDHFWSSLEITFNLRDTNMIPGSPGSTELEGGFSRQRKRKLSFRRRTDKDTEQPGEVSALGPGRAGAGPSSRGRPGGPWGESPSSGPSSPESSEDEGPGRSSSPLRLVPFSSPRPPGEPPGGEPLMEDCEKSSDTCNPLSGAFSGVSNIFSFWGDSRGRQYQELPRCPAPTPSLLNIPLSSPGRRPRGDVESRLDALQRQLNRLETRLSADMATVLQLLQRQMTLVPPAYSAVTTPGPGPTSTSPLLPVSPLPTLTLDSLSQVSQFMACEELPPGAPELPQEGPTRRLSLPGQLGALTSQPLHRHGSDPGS

T1 sequence (Q12809 whole entry): as the sequence (Q12809 whole entry) above
Chain of hERG (KCNH2) Y652A mutant (Q12809 whole entry Y652A): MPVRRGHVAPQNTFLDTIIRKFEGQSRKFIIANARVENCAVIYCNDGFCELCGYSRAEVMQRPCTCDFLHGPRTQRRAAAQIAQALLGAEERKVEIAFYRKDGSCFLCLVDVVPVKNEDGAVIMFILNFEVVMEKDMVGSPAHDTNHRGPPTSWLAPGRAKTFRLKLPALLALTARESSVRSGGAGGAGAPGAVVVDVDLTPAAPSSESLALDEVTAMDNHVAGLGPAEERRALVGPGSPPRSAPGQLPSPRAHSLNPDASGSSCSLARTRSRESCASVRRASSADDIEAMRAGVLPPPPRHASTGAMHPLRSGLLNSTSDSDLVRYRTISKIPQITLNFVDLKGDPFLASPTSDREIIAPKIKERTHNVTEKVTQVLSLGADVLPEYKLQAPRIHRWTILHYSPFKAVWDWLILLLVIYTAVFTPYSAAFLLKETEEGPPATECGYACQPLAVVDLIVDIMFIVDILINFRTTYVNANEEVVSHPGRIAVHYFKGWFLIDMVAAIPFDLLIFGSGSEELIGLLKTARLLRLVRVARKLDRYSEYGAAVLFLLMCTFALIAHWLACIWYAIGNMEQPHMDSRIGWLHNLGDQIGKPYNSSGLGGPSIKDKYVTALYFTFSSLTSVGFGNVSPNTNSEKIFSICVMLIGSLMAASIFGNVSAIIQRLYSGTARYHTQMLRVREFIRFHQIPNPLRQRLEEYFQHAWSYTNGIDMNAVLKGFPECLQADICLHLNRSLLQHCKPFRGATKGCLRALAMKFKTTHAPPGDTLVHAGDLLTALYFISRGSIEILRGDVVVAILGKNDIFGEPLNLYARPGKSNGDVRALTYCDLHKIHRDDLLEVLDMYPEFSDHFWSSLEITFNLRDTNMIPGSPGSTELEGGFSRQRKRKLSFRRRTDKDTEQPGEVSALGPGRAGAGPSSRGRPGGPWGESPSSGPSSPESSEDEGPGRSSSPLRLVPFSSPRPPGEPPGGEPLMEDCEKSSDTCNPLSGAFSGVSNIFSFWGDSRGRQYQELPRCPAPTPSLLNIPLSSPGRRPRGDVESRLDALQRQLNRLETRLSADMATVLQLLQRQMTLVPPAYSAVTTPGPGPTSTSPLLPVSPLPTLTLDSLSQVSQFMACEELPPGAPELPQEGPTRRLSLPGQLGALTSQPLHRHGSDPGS

With `O=C(CCc1ccccc1)c1ccccc1OCC(O)CN1CCN(C(c2ccccc2)(c2ccccc2)c2ccccc2)CC1` (configuration not stated), the activity at 5 min in series [1] was under 1%. The “inhibition (INH)” value in series [2] was “Active”. The Time in series [3] is 15 s. The inhibition at 330 s, 150 µM in series [4] worked out at 69%. Also, the Activity in series [5] is 47.5%. In addition, the inhibition at 5 min, 150 µM in series [6] came to 13.2%. Moreover, the inhibition at 150 µM in series [7] came to 18.3%.

What is called inhibition is the percentage by which the read-out fell short of the control.
